Laboratory results as given in US20170334899A1, “AMINO-SUBSTITUTED ISOTHIAZOLES” (Bayer Pharma Aktiengesellschaft, priority 2014, published 2017).

What was measured:
[1] = test system: HeLa; experiment: Proliferation assay (crystal violet), HeLa; format: cell-based; details: Homo sapiens, HeLa, 96 h, HeLa cells; 4 days incubation; crystal violet staining; read-out: IC50 inhibition of proliferation, HeLa
Method in brief: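 Absorbance at 595 nm of crystal-violet-stained cells after 4 days' exposure to 0.001–10 μM compound (0.5% DMSO). Values normalized to a day-0 plate (0%) and untreated cells (100%); IC50 by 4-parameter fit.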

[2] = molecular target: T1, CDK2/CycE (Homo sapiens, UniProt P24941); experiment: CDK2/CycE kinase assay (TR-FRET); format: biochemical; details: avg, read-out: CDK2 avg (IC50 [mol/l])
T1 construct: GST; purchased ProQinase GmbH (Freiburg, Germany); host or cells: insect cells (Sf9)
Method in brief: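 Read-out is a TR-FRET 665/620 nm emission ratio from EDTA-stopped reactions detected with anti-pRB(pSer807/pSer811), Eu-labelled anti-mouse IgG and streptavidin-XL665, scaled between no-enzyme and uninhibited wells. Reaction: Sf9-expressed GST-CDK2/GST-CycE, 15 min compound preincubation, 10 μM ATP, 0.75 μM biotin-peptide, 25 min, 22° C., pH 8.0 Tris buffer.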

IC50 [1]	IC50 [2]	Structure (SMILES)
0.39 µM	> 20 µM	CCN1CC[C@@H](Oc2ccc(NC(=O)c3c(C)nsc3Nc3cnc(C(F)(F)F)cn3)cn2)[C@H](F)C1 [Example 369, N-(6-{[(3R,4R)-1-ethyl-3-fluoropiperidin-4-yl]oxy}pyridin-3-yl)-3-methyl-5-{[5-(trifluoromethyl)pyrazin-2-yl]amino}-1,2-thiazole-4-carboxamide]
2.4 µM	≥ 20 µM	Cc1nsc(Nc2cnc3ccccc3n2)c1C(=O)Nc1ccc(OC2CCCN(CC(F)F)C2)nc1 (centres unmarked) [Example 33, N-(6-{[1-(2,2-Difluoroethyl)piperidin-3-yl]oxy}pyridin-3-yl)-3-methyl-5-(quinoxalin-2-ylamino)-1,2-thiazole-4-carboxamide]
0.34 µM	> 20 µM	Cc1nsc(Nc2cnc(C(F)(F)F)cn2)c1C(=O)Nc1ccc(O[C@H]2CCN(CC(F)F)C[C@@H]2F)nc1 [Example 362]
0.36 µM	≥ 20 µM	Cc1nsc(Nc2cnc(C(F)(F)F)cn2)c1C(=O)Nc1ccc(OCC2CCCN(CCC(F)(F)F)C2)nc1 (centres unmarked) [Example 328, 3-methyl-5-{[5-(trifluoromethyl)pyrazin-2-yl]amino}-N-(6-{[1-(3,3,3-trifluoropropyl)piperidin-3-yl]methoxy}pyridin-3-yl)-1,2-thiazole-4-carboxamide]
0.35 µM	> 20 µM	Cc1nsc(Nc2cnc(C(F)(F)F)cn2)c1C(=O)Nc1ccc(N2CCN(CC(F)(F)F)CC2)nc1 [Example 360, 3-methyl-N-{6-[4-(2,2,2-trifluoroethyl)piperazin-1-yl]pyridin-3-yl}-5-{[5-(trifluoromethyl)pyrazin-2-yl]amino}-1,2-thiazole-4-carboxamide]
0.32 µM	> 20 µM	Cc1nsc(Nc2cnc(C(F)(F)F)cn2)c1C(=O)Nc1ccc(C2CCN(CC(F)(F)F)CC2)nc1 [Example 358, 3-methyl-N-{6-[1-(2,2,2-trifluoroethyl)piperidin-4-yl]pyridin-3-yl}-5-{[5-(trifluoromethyl)pyrazin-2-yl]amino}-1,2-thiazole-4-carboxamide]
0.64 µM	> 20 µM	Cc1nsc(Nc2cnc(C(F)(F)F)cn2)c1C(=O)Nc1ccc(N2CCN(CC(F)F)CC2)nc1 [Example 359, N-{6-[4-(2,2-difluoroethyl)piperazin-1-yl]pyridin-3-yl}-3-methyl-5-{[5-(trifluoromethyl)pyrazin-2-yl]amino}-1,2-thiazole-4-carboxamide]
0.34 µM	> 20 µM	Cc1nsc(Nc2cnc(C(F)(F)F)cn2)c1C(=O)Nc1ccc(O[C@H]2CCN(CCC(F)(F)F)C2)nc1 [Example 384, 3-methyl-5-{[5-(trifluoromethyl)pyrazin-2-yl]amino}-N-(6-{[(3S)-1-(3,3,3-trifluoropropyl)pyrrolidin-3-yl]oxy}pyridin-3-yl)-1,2-thiazole-4-carboxamide]
0.35 µM	≥ 20 µM	Cc1nsc(Nc2cnc(C(F)(F)F)cn2)c1C(=O)Nc1ccc(OC2CCCN(CCC(F)(F)F)C2)nc1 (centres unmarked) [Example 332, 3-methyl-5-{[5-(trifluoromethyl)pyrazin-2-yl]amino}-N-(6-{[1-(3,3,3-trifluoropropyl)piperidin-3-yl]oxy}pyridin-3-yl)-1,2-thiazole-4-carboxamide]
0.83 µM	> 20 µM	Cc1nsc(Nc2cnc(C(F)(F)F)cn2)c1C(=O)Nc1ccc(F)c(OC[C@H]2CCN(CC(F)F)C2)c1 [Example 397, N-(3-{[(3S)-1-(2,2-difluoroethyl)pyrrolidin-3-yl]methoxy}-4-fluorophenyl)-3-methyl-5-{[5-(trifluoromethyl)pyrazin-2-yl]amino}-1,2-thiazole-4-carboxamide]
0.62 µM	> 20 µM	Cc1nsc(Nc2cnc(C(F)(F)F)cn2)c1C(=O)Nc1ccc(O[C@@H]2CCN(CC(F)F)C2)nc1 [Example 379, N-(6-{[(3R)-1-(2,2-difluoroethyl)pyrrolidin-3-yl]oxy}pyridin-3-yl)-3-methyl-5-{[5-(trifluoromethyl)pyrazin-2-yl]amino}-1,2-thiazole-4-carboxamide]
1.1 µM	≥ 20 µM	Cc1nsc(Nc2cnc(C(F)(F)F)cn2)c1C(=O)Nc1ccc(OCCCN(C)CCF)nc1 [Example 352, N-(6-{3-[(2-fluoroethyl)(methyl)amino]propoxy}pyridin-3-yl)-3-methyl-5-{[5-(trifluoromethyl)pyrazin-2-yl]amino}-1,2-thiazole-4-carboxamide]
0.3 µM	> 20 µM	Cc1nsc(Nc2cnc(C(F)(F)F)cn2)c1C(=O)Nc1ccc(O[C@@H]2CCN(CC(F)(F)F)C[C@H]2F)nc1 [Example 367, N-(6-{[(3R,4R)-3-fluoro-1-(2,2,2-trifluoroethyl)piperidin-4-yl]oxy}pyridin-3-yl)-3-methyl-5-{[5-(trifluoromethyl)pyrazin-2-yl]amino}-1,2-thiazole-4-carboxamide]
0.45 µM	≥ 20 µM	Cc1nsc(Nc2cnc(C(F)(F)F)cn2)c1C(=O)Nc1ccc(F)c(OCC2CCCN(CCC(F)(F)F)C2)c1 (centres unmarked) [Example 338, N-(4-fluoro-3-{[1-(3,3,3-trifluoropropyl)piperidin-3-yl]methoxy}phenyl)-3-methyl-5-{[5-(trifluoromethyl)pyrazin-2-yl]amino}-1,2-thiazole-4-carboxamide]
0.28 µM	≥ 20 µM	Cc1nsc(Nc2cnc(C(F)(F)F)cn2)c1C(=O)Nc1ccc(OCCN(C)CC(F)(F)F)nc1 [Example 350, 3-methyl-N-(6-{2-[methyl(2,2,2-trifluoroethyl)amino]ethoxy}pyridin-3-yl)-5-{[5-(trifluoromethyl)pyrazin-2-yl]amino}-1,2-thiazole-4-carboxamide]
0.43 µM	> 20 µM	CCN1CCC(COc2ccc(NC(=O)c3c(C)nsc3Nc3cnc(C(F)(F)F)cn3)cn2)C(F)(F)C1 (centres unmarked) [Example 393, N-{6-[(1-ethyl-3,3-difluoropiperidin-4-yl)methoxy]pyridin-3-yl}-3-methyl-5-{[5-(trifluoromethyl)pyrazin-2-yl]amino}-1,2-thiazole-4-carboxamide]
0.31 µM	> 20 µM	Cc1nsc(Nc2cnc(C(F)(F)F)cn2)c1C(=O)Nc1ccc(O[C@H]2CCCN(CC(F)(F)F)C2)nc1 [Example 389, 3-methyl-N-(6-{[(3S)-1-(2,2,2-trifluoroethyl)piperidin-3-yl]oxy}pyridin-3-yl)-5-{[5-(trifluoromethyl)pyrazin-2-yl]amino}-1,2-thiazole-4-carboxamide]
1.2 µM	≥ 20 µM	Cc1nsc(Nc2cnc(C(F)(F)F)cn2)c1C(=O)Nc1ccc(OC2CCCN(CC(F)F)C2)nc1 (centres unmarked) [Example 330, N-(6-{[1-(2,2-difluoroethyl)piperidin-3-yl]oxy}pyridin-3-yl)-3-methyl-5-{[5-(trifluoromethyl)pyrazin-2-yl]amino}-1,2-thiazole-4-carboxamide]
0.31 µM	> 20 µM	Cc1nsc(Nc2cnc(C(F)(F)F)cn2)c1C(=O)Nc1ccc(OC[C@@H]2CCCN(CC(F)(F)F)C2)nc1 [Example 376, 3-methyl-N-(6-{[(3R)-1-(2,2,2-trifluoroethyl)piperidin-3-yl]methoxy}pyridin-3-yl)-5-{[5-(trifluoromethyl)pyrazin-2-yl]amino}-1,2-thiazole-4-carboxamide]
1.2 µM	≥ 20 µM	Cc1nsc(Nc2cnc(C(F)(F)F)cn2)c1C(=O)Nc1ccc(OC2CCCN(C(CF)CF)C2)nc1 (centres unmarked) [Example 333, N-(6-{[1-(1,3-difluoropropan-2-yl)piperidin-3-yl]oxy}pyridin-3-yl)-3-methyl-5-{[5-(trifluoromethyl)pyrazin-2-yl]amino}-1,2-thiazole-4-carboxamide]
0.49 µM	> 20 µM	Cc1nsc(Nc2cnc(C(F)(F)F)cn2)c1C(=O)Nc1ccc(OCC2CCN(CC(F)(F)F)CC2(F)F)nc1 (centres unmarked) [Example 392, N-(6-{[3,3-difluoro-1-(2,2,2-trifluoroethyl)piperidin-4-yl]methoxy}pyridin-3-yl)-3-methyl-5-{[5-(trifluoromethyl)pyrazin-2-yl]amino}-1,2-thiazole-4-carboxamide]
0.77 µM	> 20 µM	Cc1nsc(Nc2cnc(C(F)(F)F)cn2)c1C(=O)Nc1ccc(CCC2CCN(CC(F)F)CC2)nc1 [Example 356, N-(6-{2-[1-(2,2-difluoroethyl)piperidin-4-yl]ethyl}pyridin-3-yl)-3-methyl-5-{[5-(trifluoromethyl)pyrazin-2-yl]amino}-1,2-thiazole-4-carboxamide]
0.3 µM	> 20 µM	Cc1nsc(Nc2cnc(C(F)(F)F)cn2)c1C(=O)Nc1ccc(O[C@@H]2CCN(CC(F)F)C[C@H]2F)nc1 [Example 366, N-(6-{[(3R,4R)-1-(2,2-difluoroethyl)-3-fluoropiperidin-4-yl]oxy}pyridin-3-yl)-3-methyl-5-{[5-(trifluoromethyl)pyrazin-2-yl]amino}-1,2-thiazole-4-carboxamide]
0.87 µM	≥ 20 µM	Cc1nsc(Nc2cnc(C(F)(F)F)cn2)c1C(=O)Nc1ccc(OC2CCN(C(CF)CF)CC2)nc1 [Example 324, N-(6-{[1-(1,3-difluoropropan-2-yl)piperidin-4-yl]oxy}pyridin-3-yl)-3-methyl-5-{[5-(trifluoromethyl)pyrazin-2-yl]amino}-1,2-thiazole-4-carboxamide]
0.29 µM	> 20 µM	Cc1nsc(Nc2cnc(C(F)(F)F)cn2)c1C(=O)Nc1ccc(O[C@@H]2CCCN(CC(F)(F)F)C2)nc1 [Example 386, 3-methyl-N-(6-{[(3R)-1-(2,2,2-trifluoroethyl)piperidin-3-yl]oxy}pyridin-3-yl)-5-{[5-(trifluoromethyl)pyrazin-2-yl]amino}-1,2-thiazole-4-carboxamide]
